Consider 13 molecules from PubChem BioAssay AID1259407 (Chemical Carcinogenesis Research Information System (CCRIS), 2018).

In this data set the test system is CCRIS mutagenicity, Ames/micronucleus/aberration tests. Kind of data set: CCRIS mutagenicity studies.
Setting [1] is: Test System: AMES SALMONELLA TYPHIMURIUM, Strain/Indicator: TA100, Metabolic Activation: NONE, Method: STANDARD PLATE.
Where [2] appears, read: Test System: AMES SALMONELLA TYPHIMURIUM, Strain/Indicator: TA98, Metabolic Activation: NONE, Method: STANDARD PLATE.
Where [3] appears, read: Test System: AMES SALMONELLA TYPHIMURIUM, Strain/Indicator: TA98, Metabolic Activation: RAT, LIVER, S-9, AROCLOR 1254, Method: STANDARD PLATE.
[4] abbreviates: Test System: AMES SALMONELLA TYPHIMURIUM, Strain/Indicator: TA100, Metabolic Activation: RAT, LIVER, S-9, AROCLOR 1254, Method: STANDARD PLATE.

Activity calls are given as the source filed them. How the calls were made is not given here.

As for `CC(=O)ON(OCc1ccc(Br)cc1)C(=O)c1ccccc1`, the mutagenic call is “active; positive” under setting [1] and “active; positive” (Test System: AMES SALMONELLA TYPHIMURIUM, Strain/Indicator: TA100, Metabolic Activation: RAT, S-9, AROCLOR, Method: STANDARD PLATE).
For the molecule `CC(N)C(=O)O` (centres undefined), the mutagenic call (Test System: AMES SALMONELLA TYPHIMURIUM, Strain/Indicator: TA98, Metabolic Activation: RAT LIVER, S-9, CHLOROPHENE, Method: STANDARD PLATE (COMPOUND HEATED AT 250 DEGREES CELSIUS FOR 20 MIN)) was “inactive; negative”.
For `CC(C(=O)O)c1ccc2c(c1)[nH]c1ccc(Cl)cc12` (centres undefined), the mutagenic call is, setting by setting: (Test System: AMES SALMONELLA TYPHIMURIUM, Strain/Indicator: TA98, Metabolic Activation: RAT, LIVER, S-9, PCB, Method: STANDARD PLATE) “inactive; negative”; (Test System: AMES SALMONELLA TYPHIMURIUM, Strain/Indicator: TA100, Metabolic Activation: RAT, LIVER, S-9, PCB, Method: STANDARD PLATE) “inactive; negative”; (Test System: AMES SALMONELLA TYPHIMURIUM, Strain/Indicator: TA1537, Metabolic Activation: RAT, LIVER, S-9, PCB, Method: STANDARD PLATE) “inactive; negative”; (Test System: AMES SALMONELLA TYPHIMURIUM, Strain/Indicator: TA1538, Metabolic Activation: RAT, LIVER, S-9, PCB, Method: STANDARD PLATE) “inactive; negative”; (Test System: E. COLI, Strain/Indicator: WP2 UVRA, Metabolic Activation: RAT, LIVER, S-9, PCB, Method: STANDARD PLATE) “inactive; negative”.
With `c1ccc2cc3c(ccc4c5ccccc5ccc34)cc2c1`, the mutagenic call is, setting by setting: (Test System: AMES SALMONELLA TYPHIMURIUM, Strain/Indicator: TA100, Metabolic Activation: RAT, LIVER, MICROSOMES, AROCLOR 1254, Method: STANDARD PLATE) “inactive; negative”; (Test System: AMES SALMONELLA TYPHIMURIUM, Strain/Indicator: TA100, Metabolic Activation: RAT, LIVER, MICROSOMES, BENZO[B]CHRYSENE, Method: STANDARD PLATE) “inactive; negative”; (Test System: AMES SALMONELLA TYPHIMURIUM, Strain/Indicator: TA100, Metabolic Activation: RAT, LIVER, MICROSOMES, Method: STANDARD PLATE) “inactive; negative”.
Take `CC(=O)N(CC(O)CO)c1c(I)c(C(=O)NCCO)c(I)c(C(=O)NCC(O)CO)c1I` (centres undefined): the mutagenic call is, setting by setting: (Test System: AMES SALMONELLA TYPHIMURIUM, Strain/Indicator: TA98, Metabolic Activation: NONE) “inactive; negative”; (Test System: AMES SALMONELLA TYPHIMURIUM, Strain/Indicator: TA98, Metabolic Activation: RAT, LIVER, S-9) “inactive; negative”; (Test System: AMES SALMONELLA TYPHIMURIUM, Strain/Indicator: TA100, Metabolic Activation: NONE) “inactive; negative”; (Test System: AMES SALMONELLA TYPHIMURIUM, Strain/Indicator: TA100, Metabolic Activation: RAT, LIVER, S-9) “inactive; negative”; (Test System: AMES SALMONELLA TYPHIMURIUM, Strain/Indicator: TA1535, Metabolic Activation: NONE) “inactive; negative”; (Test System: AMES SALMONELLA TYPHIMURIUM, Strain/Indicator: TA1535, Metabolic Activation: RAT, LIVER, S-9) “inactive; negative”. Moreover, the mutagenic call runs as follows: (Test System: AMES SALMONELLA TYPHIMURIUM, Strain/Indicator: TA1537, Metabolic Activation: NONE) “inactive; negative”; (Test System: AMES SALMONELLA TYPHIMURIUM, Strain/Indicator: TA1537, Metabolic Activation: RAT, LIVER, S-9) “inactive; negative”; (Test System: E.COLI, Strain/Indicator: WP2 UVRA, Metabolic Activation: NONE) “inactive; negative”; (Test System: E.COLI, Strain/Indicator: WP2 UVRA, Metabolic Activation: RAT, LIVER, S-9) “inactive; negative”.
On to `O=[N+]([O-])C1=Cc2c3ccc4ccccc4c3cc3cccc1c23`, for which the mutagenic call is, setting by setting: under setting [2], “active; positive”; under setting [3], “active; positive”; under setting [1], “inactive; negative”; under setting [4], “inactive; negative”; (Test System: AMES SALMONELLA TYPHIMURIUM, Strain/Indicator: TA1535, Metabolic Activation: NONE, Method: STANDARD PLATE) “inactive; negative”; (Test System: AMES SALMONELLA TYPHIMURIUM, Strain/Indicator: TA1535, Metabolic Activation: RAT, LIVER, S-9, AROCLOR 1254, Method: STANDARD PLATE) “inactive; negative”. Besides, the mutagenic call was “active; positive” (Test System: AMES SALMONELLA TYPHIMURIUM, Strain/Indicator: TA1537, Metabolic Activation: NONE, Method: STANDARD PLATE); “active; positive” (Test System: AMES SALMONELLA TYPHIMURIUM, Strain/Indicator: TA1537, Metabolic Activation: RAT, LIVER, S-9, AROCLOR 1254, Method: STANDARD PLATE); “active; positive” (Test System: AMES SALMONELLA TYPHIMURIUM, Strain/Indicator: TA1538, Metabolic Activation: NONE, Method: STANDARD PLATE); “inactive; negative” (Test System: AMES SALMONELLA TYPHIMURIUM, Strain/Indicator: TA1538, Metabolic Activation: RAT, LIVER, S-9, AROCLOR 1254, Method: STANDARD PLATE).
On to `O=[N+]([O-])[O-].O=[N+]([O-])[O-].O=[N+]([O-])[O-].[Gd+3]`, for which the mutagenic call (Test System: UDS HUMAN LYMPHOCYTES, Strain/Indicator: THYMIDINE INCORPORATION, Metabolic Activation: NONE, Method: LIQUID SCINTILLATION COUNTING) was “active; positive”.
Turning to `CCCCOc1ccc(N=O)cc1`, under setting [1], the mutagenic call was “active; positive”.
As for `O=c1[nH]c2c(c(=O)n1C1CCCCC1)CCC2`, the mutagenic call was “inactive; negative” (Test System: AMES SALMONELLA TYPHIMURIUM, Strain/Indicator: TA97, Metabolic Activation: RAT, LIVER, S-9, AROCLOR 1254, Method: STANDARD PLATE); “inactive; negative” (Test System: AMES SALMONELLA TYPHIMURIUM, Strain/Indicator: TA97, Metabolic Activation: RAT, LIVER, S-9, AROCLOR 1254 AND NADPH, Method: STANDARD PLATE); “inactive; negative” under setting [3]; “inactive; negative” (Test System: AMES SALMONELLA TYPHIMURIUM, Strain/Indicator: TA98, Metabolic Activation: RAT, LIVER, S-9, AROCLOR 1254 AND NADPH, Method: STANDARD PLATE); “inactive; negative” under setting [4]; “inactive; negative” (Test System: AMES SALMONELLA TYPHIMURIUM, Strain/Indicator: TA100, Metabolic Activation: RAT, LIVER, S-9, AROCLOR 1254 AND NADPH, Method: STANDARD PLATE). In addition, the mutagenic call is “inactive; negative” (Test System: AMES SALMONELLA TYPHIMURIUM, Strain/Indicator: TA102, Metabolic Activation: RAT, LIVER, S-9, AROCLOR 1254, Method: STANDARD PLATE) and “inactive; negative” (Test System: AMES SALMONELLA TYPHIMURIUM, Strain/Indicator: TA102, Metabolic Activation: RAT, LIVER, S-9, AROCLOR 1254 AND NADPH, Method: STANDARD PLATE).
In the case of `COc1ccc(CN2C3c4ccccc4-c4ccccc4C32)cc1` (centres undefined), the mutagenic call under setting [1] is “active; positive”.
Take `COC1=CC(=O)C(=O)C(C(C)(C)C)=C1`: the mutagenic call by setting is: under setting [2], “inactive; negative”; under setting [3], “inactive; negative”; under setting [1], “inactive; negative”; under setting [4], “inactive; negative”.
For `Cc1c2ccccc2c(CO)c2ccc3ccccc3c12`, the mutagenic call by setting is: (Test System: AMES SALMONELLA TYPHIMURIUM, Strain/Indicator: TA98, Metabolic Activation: HUMAN, LIVER, CYTOSOL, PAPS, Method: PREINCUBATION) “active; positive”; (Test System: AMES SALMONELLA TYPHIMURIUM, Strain/Indicator: TA100, Metabolic Activation: RAT, LIVER, PARENCHYMAL CELLS (CRYOPRESERVED), Method: PREINCUBATION) “inactive; negative”; (Test System: AMES SALMONELLA TYPHIMURIUM, Strain/Indicator: TA100, Metabolic Activation: RAT, LIVER, PARENCHYMAL CELLS (FRESHLY ISOLATED), Method: PREINCUBATION) “active; positive”; under setting [4], “active; positive”; (Test System: CHINESE HAMSTER V-79, Strain/Indicator: V-79/6-THIOGUANINE, Metabolic Activation: CELL-MEDIATED, Method: STANDARD PLATE) “active; positive”; (Test System: CHINESE HAMSTER V-79, Strain/Indicator: V-79/OUABAIN, Metabolic Activation: CELL-MEDIATED, Method: STANDARD PLATE) “active; positive”.
On to `CC(=O)N(N=O)c1ccc2c(c1)Cc1ccccc1-2`, for which the mutagenic call was “active; positive” (Test System: CHINESE HAMSTER OVARY, Strain/Indicator: CHO/6-THIOGUANINE (HGPRT), Metabolic Activation: NONE, Method: STANDARD PLATE) and “active; positive” (Test System: CHINESE HAMSTER OVARY, Strain/Indicator: CHO/OUABAIN (HGPRT), Metabolic Activation: NONE, Method: STANDARD PLATE).
